In patent publication US20100255001A1, “BLOCKERS OF SEROTONIN AND ITS RECEPTORS FOR THE TREATMENT OF HEPATITIS” (priority 2007, published 2010):

Columns and labels:
LCMV = type: in vivo, C57BL/6 mice; details: 2×10^4 pfu LCMV, serotonin 5 mg/mouse/day
[1] = Serotonin treatment without infection, effect on liver

For `NCCc1c[nH]c2ccc(O)cc12` [serotonin], the “time of maximum ALT level after infection” value (LCMV) was 10 days, the “replicating virus in liver (viral titers)” value (LCMV; eight days after infection, vehicle treated mice cleared LCMV by day 8) was “high levels of replicating virus” and the “ALT levels in the serum” value (LCMV; maximum at day 10 after infection) was “more than 1000 U/I”. The “effect on the liver without infection” value [1] was “harmless to the liver”.
